These results are taken from patent US7528250B2, “Chroman derivatives and uses thereof” (Roche Palo Alto LLC, priority 2004, dated 2009).

In general, melting point refers to the temperature, or range, at which the solid turns liquid.

Series [1] addresses T1, recombinant human 5-HT6 receptor (Homo sapiens, UniProt P50406).
T1 construct: expressed in transfected cells; membranes
Put plainly: Radioligand binding, [3H]LSD competition, membranes of HEK293 cells expressing 5-HT6. Conditions: HEK293 cell membranes, pH 7.4, 37° C., 75 min, read-out: pKi for 5-HT6 (converted). How it is done:
(§1) The binding activity of compounds of this invention in vitro was determined as follows. Duplicate determinations of 5-HT6 ligand affinity were made by competing for binding of [^3H]LSD in cell membranes derived from HEK293 cells stably expressing recombinant human 5-HT6 receptor. Duplicate determinations of 5-HT2A ligand affinity were made by competing for binding of [^3H]Ketanserin (3-(2-(4-(4-fluorobenzoyl)piperidinol)ethyl)-2,4(1H,3H)-quinazolinedione) in cell membranes derived from CHO-K1 cells stably expressing recombinant human 5-HT2A receptor. Membranes were prepared from HEK 293 cell lines by the method described by Monsma et al., Molecular Pharmacology, Vol. 43 pp. 320-327 (1993), and from CHO-K1 cell lines as described by Bonhaus et al., Br J Pharmacol. June; 115(4):622-8 (1995).
(§2) For estimation of affinity at the 5-HT6 receptor, all determinations were made in assay buffer containing 50 mM Tris-HCl, 10 mM MgSO4, 0.5 mM EDTA, 1 mM ascorbic acid, pH 7.4 at 37° C., in a 250 microliter reaction volume. […]
(§3) Assay tubes containing [^3H] […] LSD or [^3H]Ketanserin were determined as radioactive counts per minute using Packard TopCount.
(§4) Displacement of [^3H]LSD or [^3H]Ketanserin from the binding sites was quantified by fitting concentration-binding data to a 4-parameter logistic equation: […]

Series [2] deals with T2, recombinant human 5-HT2A receptor (Homo sapiens, UniProt P28223).
T2 construct: expressed in transfected cells; membranes
T2 sequence (P28223 whole entry): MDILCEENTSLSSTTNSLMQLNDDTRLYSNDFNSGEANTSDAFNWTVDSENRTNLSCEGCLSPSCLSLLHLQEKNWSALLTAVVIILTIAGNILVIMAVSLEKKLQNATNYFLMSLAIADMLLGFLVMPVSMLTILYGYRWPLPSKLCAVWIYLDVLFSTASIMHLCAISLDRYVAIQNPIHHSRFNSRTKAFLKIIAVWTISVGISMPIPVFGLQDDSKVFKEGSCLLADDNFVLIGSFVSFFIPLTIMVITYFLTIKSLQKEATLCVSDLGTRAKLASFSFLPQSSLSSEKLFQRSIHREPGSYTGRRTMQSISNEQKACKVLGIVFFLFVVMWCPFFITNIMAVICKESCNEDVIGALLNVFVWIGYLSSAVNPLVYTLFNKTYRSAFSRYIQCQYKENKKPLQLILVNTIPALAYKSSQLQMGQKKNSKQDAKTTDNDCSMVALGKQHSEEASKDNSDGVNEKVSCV
In words: Radioligand binding, [3H]Ketanserin competition, membranes of CHO-K1 cells expressing 5-HT2A. Conditions: CHO-K1 cell membranes, pH 7.4, 32° C., 60 min, read-out: pKi for 5-HT2A (converted). As to the method: as §1, §2, §3, §4

Each structure is given as a SMILES string. Counter-ions that a name gives are not always drawn.

T1 sequence (P50406 whole entry): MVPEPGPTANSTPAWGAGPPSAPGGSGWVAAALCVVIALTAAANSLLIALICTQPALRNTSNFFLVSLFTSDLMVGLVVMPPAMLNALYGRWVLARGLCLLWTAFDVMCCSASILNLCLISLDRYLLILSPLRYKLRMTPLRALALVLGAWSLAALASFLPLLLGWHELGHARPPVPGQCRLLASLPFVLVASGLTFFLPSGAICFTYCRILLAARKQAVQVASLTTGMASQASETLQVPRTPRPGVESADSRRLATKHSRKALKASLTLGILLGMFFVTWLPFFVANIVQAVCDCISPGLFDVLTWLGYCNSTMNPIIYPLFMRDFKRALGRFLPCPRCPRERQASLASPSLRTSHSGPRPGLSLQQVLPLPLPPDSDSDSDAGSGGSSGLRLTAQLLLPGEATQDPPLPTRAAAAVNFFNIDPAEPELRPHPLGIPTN

As for `O=S(=O)(c1ccccc1)c1ccc2c(c1)OCCC2N1CCNCC1` (stereo not drawn) (as salt: HCl) [Compound 1, 1-(7-Benzenesulfonyl-chroman-4-yl)-piperazine], the melting point is 243 to 249 °C.
For `O=S(=O)(c1ccccc1)c1ccc2c(c1)OCCC2N1CCNCC1` (stereo not drawn) [Compound 1, 1-(7-Benzenesulfonyl-chroman-4-yl)-piperazine], the Ki in series [1] is around 0.417 nM; in series [2] it was around 46.8 nM.
